Measurements reported in patent US8691865B2 (AbbVie Inc., priority 2008, dated 2014).

molecular target: human Cav2.2 (Homo sapiens, UniProt Q00975); assay: Assessment of calcium channel activity using FLIPR (Ca2+ influx in IMR32 cells); type: cell-based; details: not given
Procedure: (i) In Vitro Methods—Assessment of Calcium Channel Activity Using FLIPR:
The IMR32 cells were maintained in MEM media containing 10% (v/v) FBS, 1% (v/v) antibiotic/antimitotic, 1% (v/v) sodium pyruvate and 1% (v/v) MEM NEAA. Following dissociation in 0.05% (v/v) trypsin/EDTA, cells were seeded into black 1×96-well plates (Corning Cellbind) at a density of 1−1.2×10^5 cells/well and incubated in the maintenance media above for 48 hours at 37° C. […] To determine the IC50 values, the percent inhibition of the compound at each concentration was determined relative to the activity in the absence of inhibitor, and data was fitted using non-linear regression sigmoidal dose response curve analysis with GraphPad Prism®.

human Cav2.2, sequence (Q00975 whole entry): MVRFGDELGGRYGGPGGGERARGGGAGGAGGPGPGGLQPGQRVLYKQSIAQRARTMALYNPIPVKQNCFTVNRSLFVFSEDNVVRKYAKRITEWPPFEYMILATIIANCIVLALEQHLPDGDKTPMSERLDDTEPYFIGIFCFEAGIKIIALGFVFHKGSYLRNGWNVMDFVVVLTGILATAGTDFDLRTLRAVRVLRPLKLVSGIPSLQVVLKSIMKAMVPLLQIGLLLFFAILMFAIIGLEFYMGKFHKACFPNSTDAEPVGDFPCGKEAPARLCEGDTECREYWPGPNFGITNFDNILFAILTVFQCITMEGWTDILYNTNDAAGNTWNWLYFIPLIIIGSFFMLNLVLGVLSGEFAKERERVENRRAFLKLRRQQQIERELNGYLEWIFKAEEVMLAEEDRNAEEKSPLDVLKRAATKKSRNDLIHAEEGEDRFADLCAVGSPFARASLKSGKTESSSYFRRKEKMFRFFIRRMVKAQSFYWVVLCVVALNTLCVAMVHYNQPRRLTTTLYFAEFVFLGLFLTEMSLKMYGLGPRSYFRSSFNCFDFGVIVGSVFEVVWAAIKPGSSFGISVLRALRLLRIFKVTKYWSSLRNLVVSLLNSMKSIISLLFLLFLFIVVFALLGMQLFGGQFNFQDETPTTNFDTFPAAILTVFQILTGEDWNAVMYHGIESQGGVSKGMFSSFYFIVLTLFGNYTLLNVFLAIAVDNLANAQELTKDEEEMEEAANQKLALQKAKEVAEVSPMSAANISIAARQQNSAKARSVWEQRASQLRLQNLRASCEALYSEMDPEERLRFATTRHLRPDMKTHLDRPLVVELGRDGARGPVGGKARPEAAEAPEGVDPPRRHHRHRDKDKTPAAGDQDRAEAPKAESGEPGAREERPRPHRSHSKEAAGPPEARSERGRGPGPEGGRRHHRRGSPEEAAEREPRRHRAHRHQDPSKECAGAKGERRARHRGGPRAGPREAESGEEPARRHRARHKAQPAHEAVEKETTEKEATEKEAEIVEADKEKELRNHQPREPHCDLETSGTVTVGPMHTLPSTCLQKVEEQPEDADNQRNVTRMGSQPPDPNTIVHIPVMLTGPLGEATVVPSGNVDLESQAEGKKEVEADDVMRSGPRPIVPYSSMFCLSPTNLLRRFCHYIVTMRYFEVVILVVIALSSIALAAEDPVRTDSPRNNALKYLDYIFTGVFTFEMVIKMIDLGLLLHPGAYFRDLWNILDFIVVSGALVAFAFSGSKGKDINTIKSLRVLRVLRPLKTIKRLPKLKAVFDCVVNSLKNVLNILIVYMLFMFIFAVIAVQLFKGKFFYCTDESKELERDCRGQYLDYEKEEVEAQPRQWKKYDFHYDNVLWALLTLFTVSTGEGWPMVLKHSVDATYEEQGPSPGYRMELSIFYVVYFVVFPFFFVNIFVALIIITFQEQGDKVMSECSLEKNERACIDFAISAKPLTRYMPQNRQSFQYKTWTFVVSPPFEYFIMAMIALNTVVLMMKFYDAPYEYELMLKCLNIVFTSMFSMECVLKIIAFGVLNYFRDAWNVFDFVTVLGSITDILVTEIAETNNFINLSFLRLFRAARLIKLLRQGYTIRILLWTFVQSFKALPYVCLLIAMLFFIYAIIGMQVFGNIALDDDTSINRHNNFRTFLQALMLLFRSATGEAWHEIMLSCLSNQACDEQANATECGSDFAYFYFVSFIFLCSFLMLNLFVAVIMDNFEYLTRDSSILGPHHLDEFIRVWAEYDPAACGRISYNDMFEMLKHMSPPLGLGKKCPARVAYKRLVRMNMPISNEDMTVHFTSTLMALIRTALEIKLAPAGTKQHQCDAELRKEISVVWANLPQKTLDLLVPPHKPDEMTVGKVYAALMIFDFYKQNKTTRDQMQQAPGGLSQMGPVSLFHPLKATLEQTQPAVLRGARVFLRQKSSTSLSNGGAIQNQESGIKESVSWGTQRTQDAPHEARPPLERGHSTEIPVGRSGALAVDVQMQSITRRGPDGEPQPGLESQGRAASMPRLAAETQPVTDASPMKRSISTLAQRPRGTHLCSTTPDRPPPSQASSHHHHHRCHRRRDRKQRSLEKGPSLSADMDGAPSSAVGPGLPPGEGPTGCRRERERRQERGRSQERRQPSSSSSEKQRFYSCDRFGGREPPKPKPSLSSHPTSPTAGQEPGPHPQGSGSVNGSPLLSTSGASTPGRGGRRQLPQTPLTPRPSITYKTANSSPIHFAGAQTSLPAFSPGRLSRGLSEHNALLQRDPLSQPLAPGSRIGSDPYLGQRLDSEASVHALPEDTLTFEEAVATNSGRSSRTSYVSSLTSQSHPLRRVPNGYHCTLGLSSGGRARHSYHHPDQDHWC
human Cav2.2, sequence (P54289 25-956 partner limits assumed): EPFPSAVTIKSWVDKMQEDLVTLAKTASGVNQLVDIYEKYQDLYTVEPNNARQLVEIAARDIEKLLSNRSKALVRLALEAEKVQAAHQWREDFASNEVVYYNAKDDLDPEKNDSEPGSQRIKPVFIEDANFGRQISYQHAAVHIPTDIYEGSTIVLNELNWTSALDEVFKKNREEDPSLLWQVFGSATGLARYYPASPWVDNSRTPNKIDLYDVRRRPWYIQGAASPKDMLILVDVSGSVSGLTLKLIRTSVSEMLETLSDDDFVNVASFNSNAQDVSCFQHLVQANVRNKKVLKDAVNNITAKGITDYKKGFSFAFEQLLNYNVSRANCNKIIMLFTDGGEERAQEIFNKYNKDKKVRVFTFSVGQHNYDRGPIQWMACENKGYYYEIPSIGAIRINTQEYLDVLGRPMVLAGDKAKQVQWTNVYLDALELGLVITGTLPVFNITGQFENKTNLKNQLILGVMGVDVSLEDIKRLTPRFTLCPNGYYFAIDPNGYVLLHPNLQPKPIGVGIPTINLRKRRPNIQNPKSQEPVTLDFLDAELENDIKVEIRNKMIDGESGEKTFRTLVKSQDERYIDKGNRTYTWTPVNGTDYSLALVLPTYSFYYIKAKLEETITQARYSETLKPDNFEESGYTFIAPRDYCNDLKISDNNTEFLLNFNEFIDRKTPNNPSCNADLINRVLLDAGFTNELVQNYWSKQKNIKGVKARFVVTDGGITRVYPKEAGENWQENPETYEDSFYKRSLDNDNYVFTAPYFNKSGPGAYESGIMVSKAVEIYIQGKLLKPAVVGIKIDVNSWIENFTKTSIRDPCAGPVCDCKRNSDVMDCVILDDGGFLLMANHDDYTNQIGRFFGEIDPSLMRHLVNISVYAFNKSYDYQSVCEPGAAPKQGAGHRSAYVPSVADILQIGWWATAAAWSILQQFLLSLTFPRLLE
human Cav2.2, sequence (P54289 957-1103 partner limits assumed): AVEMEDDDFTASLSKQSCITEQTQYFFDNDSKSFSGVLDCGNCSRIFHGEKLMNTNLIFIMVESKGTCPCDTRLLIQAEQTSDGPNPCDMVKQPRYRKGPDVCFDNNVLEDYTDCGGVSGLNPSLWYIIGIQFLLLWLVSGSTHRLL
human Cav2.2, sequence (P54284 whole entry partner): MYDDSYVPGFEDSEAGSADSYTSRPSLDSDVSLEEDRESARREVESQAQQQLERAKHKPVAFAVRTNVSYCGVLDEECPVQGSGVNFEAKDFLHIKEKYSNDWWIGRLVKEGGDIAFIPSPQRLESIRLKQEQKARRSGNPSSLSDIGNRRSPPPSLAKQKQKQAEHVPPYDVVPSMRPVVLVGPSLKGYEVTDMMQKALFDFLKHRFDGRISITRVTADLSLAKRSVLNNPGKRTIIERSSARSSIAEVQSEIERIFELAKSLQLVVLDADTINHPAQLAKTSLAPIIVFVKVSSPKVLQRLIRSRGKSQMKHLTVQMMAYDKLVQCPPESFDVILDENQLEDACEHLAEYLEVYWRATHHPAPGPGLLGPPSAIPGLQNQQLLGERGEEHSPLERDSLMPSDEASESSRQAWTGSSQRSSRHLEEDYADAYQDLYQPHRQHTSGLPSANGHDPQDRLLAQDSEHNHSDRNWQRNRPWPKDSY

IC50 [µM]	Compound
1.52	O=C(N[C@H]1CC[C@@H]2CN(c3ccc(F)cc3C(F)(F)F)C[C@@H]21)[C@@H]1C[C@@H](F)CN1 [Example 698, (4R)-4-fluoro-N-{(3aR,4S,6aS)-2-[4-fluoro-2-(trifluoromethyl)phenyl]octahydrocyclopenta[c]pyrrol-4-yl}-L-prolinamide]
0.57	CC(C)(C)C(C(=O)N[C@H]1CC[C@H]2CN(Cc3cccc(C(F)(F)F)c3)C[C@H]21)c1ccccc1 (relative stereo) [Example 123, 3,3-dimethyl-2-phenyl-N-{(3aS*,4S*,6aR*)-2-[3-(trifluoromethyl)benzyl]octahydrocyclopenta[c]pyrrol-4-yl}butanamide]
0.85	O=S(=O)(N[C@@H]1CC[C@@H]2CN(Cc3cccc(C(F)(F)F)c3)C[C@@H]21)c1cccc(C(F)(F)F)c1 [Example 188, 3-(trifluoromethyl)-N-{(3aR,4R,6aS)-2-[3-(trifluoromethyl)benzyl]octahydrocyclopenta[c]pyrrol-4-yl}benzenesulfonamide]
4.63	O=S(=O)(N[C@H]1CC[C@@H]2CN(c3cccc(C(F)(F)F)n3)C[C@@H]21)c1cccc(Cl)c1 [Example 704, 3-chloro-N-{(3aR,4S,6aS)-2-[6-(trifluoromethyl)pyridin-2-yl]octahydrocyclopenta[c]pyrrol-4-yl}benzenesulfonamide]
> 16.4	CCC[C@H](NC(=O)OC(C)C)C(=O)N[C@H]1CC[C@@H]2CN(S(=O)(=O)c3ccc(C(F)(F)F)cc3)C[C@@H]21 [Example 279, isopropyl(S)-1-oxo-1-((3aR,4S,6aS)-2-(4-(trifluoromethyl)phenylsulfonyl)octahydrocyclopenta[c]pyrrol-4-ylamino)pentan-2-ylcarbamate]
3.33	Fc1ccc2[nH]c(CN[C@H]3CC[C@@H]4CN(c5ccc(C(F)(F)F)cn5)C[C@@H]43)cc2c1 [Example 614, (3aR,4S,6aS)-N-[(5-fluoro-1H-indol-2-yl)methyl]-2-[5-(trifluoromethyl)pyridin-2-yl]octahydrocyclopenta[c]pyrrol-4-amine]
1.88	CN[C@@H](CC(C)(C)C)C(=O)N[C@H]1CC[C@@H]2CN(c3ccc(C(F)(F)F)cn3)C[C@@H]21 [Example 602, N^2,4-dimethyl-N-{(3aR,4S,6aS)-2-[5-(trifluoromethyl)pyridin-2-yl]octahydrocyclopenta[c]pyrrol-4-yl}-L-leucinamide]
> 30	CC[C@H](C)[C@H](NC)C(=O)N[C@H]1CC[C@@H]2CN(Cc3ccccc3)C[C@@H]21 [Example 353, N^1-[(3aR,4S,6aS)-2-benzyloctahydrocyclopenta[c]pyrrol-4-yl]-N^2-methyl-L-isoleucinamide]
5.31	CN[C@@H](CC(C)C)C(=O)N[C@H]1CC[C@@H]2CN(c3ccc(F)cc3)C[C@@H]21 [Example 620, N-[(3aR,4S,6aS)-2-(4-fluorophenyl)octahydrocyclopenta[c]pyrrol-4-yl]-N^2-methyl-L-leucinamide]
0.5	CC(C)(C)CCN[C@H]1CC[C@@H]2CN(c3cccc(C(F)(F)F)n3)C[C@@H]21 [Example 611, (3aR,4S,6aS)-N-(3,3-dimethylbutyl)-2-[6-(trifluoromethyl)pyridin-2-yl]octahydrocyclopenta[c]pyrrol-4-amine]
1.93	O=C(N[C@H]1CC[C@H]2CN(Cc3ccccc3)C[C@H]21)C1(c2ccccc2)CCCC1 (relative stereo) [Example 1, N-[(3aS*,4S*,6aR*)-2-benzyloctahydrocyclopenta[c]pyrrol-4-yl]-1-phenylcyclopentanecarboxamide]

More lines, now with the values behind:

Compound	IC50 [µM]
CC(C)(C)NC(=O)N[C@H]1CC[C@@H]2CN(c3ccc(OC(F)(F)F)cc3)C[C@@H]21 [Example 778, 1-tert-butyl-3-{(3aR,4S,6aS)-2-[4-(trifluoromethoxy)phenyl]octahydrocyclopenta[c]pyrrol-4-yl}urea]	4.27
FC(F)(F)c1cccc(N2C[C@H]3CC[C@H](NCc4cn[nH]c4)[C@H]3C2)n1 [Example 696, (3aR,4S,6aS)-N-(1H-pyrazol-4-ylmethyl)-2-[6-(trifluoromethyl)pyridin-2-yl]octahydrocyclopenta[c]pyrrol-4-amine]	3.52
CC(C)C[C@@H](C(=O)N[C@@H]1CC[C@H]2CN(S(C)(=O)=O)C[C@H]21)N1CCCC1 [Example 346, (2S)-4-methyl-N-[(3aS,4R,6aR)-2-(methylsulfonyl)octahydrocyclopenta[c]pyrrol-4-yl]-2-pyrrolidin-1-ylpentanamide]	> 30
O=C(N[C@H]1CC[C@H]2CN(Cc3cccc(C(F)(F)F)c3)C[C@H]21)C(c1ccc(F)cc1)c1ccc(F)cc1 (relative stereo) [Example 136, 2,2-bis(4-fluorophenyl)-N-{(3aS*,4S*,6aR*)-2-[3-(trifluoromethyl)benzyl]octahydrocyclopenta[c]pyrrol-4-yl}acetamide]	0.64
N[C@@H](CC1CC1)C(=O)N[C@H]1CC[C@@H]2CN(c3ccc(OC(F)(F)F)cc3)C[C@@H]21 [Example 776, 3-cyclopropyl-N-{(3aR,4S,6aS)-2-[4-(trifluoromethoxy)phenyl]octahydrocyclopenta[c]pyrrol-4-yl}-L-alaninamide]	2.53
O=C(N[C@@H]1CC[C@H]2CN(Cc3cccc(C(F)(F)F)c3)C[C@H]21)C(C1CCCCC1)C1CCCCC1 [Example 75, 2,2-dicyclohexyl-N-{(3aS,4R,6aR)-2-[3-(trifluoromethyl)benzyl]octahydrocyclopenta[c]pyrrol-4-yl}acetamide]	0.45
CC(C)(C)C[C@@H](C(=O)N[C@H]1CC[C@@H]2CN(S(=O)(=O)c3ccc(C(F)(F)F)cc3)C[C@@H]21)N(C1CC1)C1CC1 [Example 500, N^2,N^2-dicyclopropyl-4-methyl-N^1-((3aR,4S,6aS)-2-{[4-(trifluoromethyl)phenyl]sulfonyl}octahydrocyclopenta[c]pyrrol-4-yl)-L-leucinamide]	1.69
FC(F)(F)c1cccc(N2C[C@H]3CC[C@H](NCc4c[nH]nc4-c4ccccc4)[C@H]3C2)n1 [Example 682, (3aR,4S,6aS)-N-[(3-phenyl-1H-pyrazol-4-yl)methyl]-2-[6-(trifluoromethyl)pyridin-2-yl]octahydrocyclopenta[c]pyrrol-4-amine]	0.87

same assay, conditions: IC50 (μM) or percent inhibition (* indicates 3 minute incubation, otherwise 60 minute), IC50; 3 minute pre-incubation (*); IMR32 cells, 80 mM KCl depolarization

IC50 [µM]	Compound
2.6	CC(C)C(C(=O)N[C@H]1CC[C@@H]2CN(CC3CCCCC3)C[C@@H]21)c1ccccc1 (stereo partly drawn) [Example 83, N-[(3aR,4S,6aS)-2-(cyclohexylmethyl)octahydrocyclopenta[c]pyrrol-4-yl]-3-methyl-2-phenylbutanamide]

same assay, conditions: read-out: IC50 (μM) or percent inhibition (* indicates 3 minute incubation, otherwise 60 minute); IC50; 60 minute pre-incubation with compound; IMR32 cells, 80 mM KCl depolarization

IC50 [µM]	Compound
2.26	O=S(=O)(c1cccc(C(F)(F)F)c1)N1C[C@H]2CC[C@H](NC(c3ccccc3)c3ccccc3)[C@H]2C1 [Example 468, (3aR,4S,6aS)-N-benzhydryl-2-{[3-(trifluoromethyl)phenyl]sulfonyl}octahydrocyclopenta[c]pyrrol-4-amine]
1.45	CC(C)C[C@H](N)C(=O)N[C@@H]1CC[C@H]2CN(S(=O)(=O)c3cccc(C(F)(F)F)c3)C[C@H]21 [Example 184, N^1-((3aS,4R,6aR)-2-{[3-(trifluoromethyl)phenyl]sulfonyl}octahydrocyclopenta[c]pyrrol-4-yl)-L-leucinamide]
0.86	CC(C)C[C@@H](C(=O)N[C@@H]1CC[C@H]2CN(Cc3cccc(C(F)(F)F)c3)C[C@H]21)N(C)C(=O)C(C)(C)C [Example 176, N^2-(2,2-dimethylpropanoyl)-N^2-methyl-N^1-{(3aS,4R,6aR)-2-[3-(trifluoromethyl)benzyl]octahydrocyclopenta[c]pyrrol-4-yl}-L-leucinamide]
1.64	CN[C@@H](CC(C)C)C(=O)N[C@H]1CC[C@H]2CN(Cc3cccc(C(F)(F)F)c3)C[C@H]21 [Example 164, N^2-methyl-N^1-{(3aS,4S,6aR)-2-[3-(trifluoromethyl)benzyl]octahydrocyclopenta[c]pyrrol-4-yl}-L-leucinamide]
1.15	O=C(CCC(c1ccc(F)cc1)c1ccc(F)cc1)N[C@H]1CC[C@H]2CN(Cc3cccc(C(F)(F)F)c3)C[C@H]21 (relative stereo) [Example 134, 4,4-bis(4-fluorophenyl)-N-{(3aS*,4S*,6aR*)-2-[3-(trifluoromethyl)benzyl]octahydrocyclopenta[c]pyrrol-4-yl}butanamide]
1.28	CC(C)C[C@H](C(=O)N1C[C@@H]2CC[C@@H](NC(=O)C(C3CCCCC3)C3CCCCC3)[C@@H]2C1)N(C)C [Example 217, 2,2-dicyclohexyl-N-[(3aS,4R,6aR)-2-(N,N-dimethyl-D-leucyl)octahydrocyclopenta[c]pyrrol-4-yl]acetamide]
0.29	O=C(N[C@H]1CC[C@H]2CN(Cc3ccc(F)c(C(F)(F)F)c3)C[C@H]21)C(C1CCCCC1)C1CCCCC1 [Example 57, 2,2-dicyclohexyl-N-{(3aS,4S,6aR)-2-[4-fluoro-3-(trifluoromethyl)benzyl]octahydrocyclopenta[c]pyrrol-4-yl}acetamide]
13.3	CCC[C@H](NC)C(=O)N[C@H]1CC[C@@H]2CN(Cc3ccc(C(F)(F)F)cc3)C[C@@H]21 [Example 377, N^2-methyl-N^1-{(3aR,4S,6aS)-2-[4-(trifluoromethyl)benzyl]octahydrocyclopenta[c]pyrrol-4-yl}-L-norvalinamide]

Compound	IC50 [µM]
(3aR,4S,6aS)-N-(1H-pyrrolo[2,3-b]pyridin-2-ylmethyl)-2-[6-(trifluoromethyl)pyridin-2-yl]octahydrocyclopenta[c]pyrrol-4-amine [Example 693]	1.42
